Test results taken from patent US8658661B2, “Oxadiazole inhibitors of leukotriene production” (Boehringer Ingelheim International GmbH, priority 2010, dated 2014).

Legend:
[1] = test system: synthesis of LTB4 in human whole blood; test: Human whole blood assay (inhibition of LTB4 synthesis, calcimycin stimulated); format: cell-based; conditions: heparinized human whole blood, calcimycin 20 μM, plasma LTB4
Outline: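 LTB4 in plasma was quantified by HTRF immunoassay. Before that, compound-treated heparinized whole blood (15 min, 37 °C) received 20 μM final calcimycin for a further 30 min at 37 °C, followed by centrifugation at 1500×g.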

[2] = molecular target: T1, recombinant human FLAP protein (Homo sapiens, UniProt P20292); test: FLAP binding assay (SPA, displacement of [125I]L-691,831); conditions: membranes of sf9 cells expressing recombinant human FLAP; [125I]L-691,831 probe; read-out: FLAP binding IC50
T1 construct: made in house; host or cells: Sf9 insect cells (100,000×g membrane pellet used)
T1 sequence (P20292 1-161): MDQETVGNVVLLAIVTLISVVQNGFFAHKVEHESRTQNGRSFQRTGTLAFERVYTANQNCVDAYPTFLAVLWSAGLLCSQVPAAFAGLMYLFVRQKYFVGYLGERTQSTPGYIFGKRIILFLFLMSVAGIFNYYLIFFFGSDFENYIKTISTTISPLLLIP
Outline: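 Membranes from sf9 cells expressing human FLAP in pH 7.5 Tris buffer (MgCl2, EDTA, PMSF). Non-specific binding defined with 10 μM cold L-691,831.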

Compound | IC50 [1] | IC50 [2]
CC(C)C(C)(c1ccc(-c2cnc(N)nc2)cc1)c1noc(-c2cnn(CCN3CCOCC3)c2)n1 (centres unmarked) [Example 144, 5-{4-[3-methyl-2-(5-{1-[2-(morpholin-4-yl)ethyl]-1H-pyrazol-4-yl}-1,2,4-oxadiazol-3-yl)butan-2-yl]phenyl}pyrimidin-2-amine] | 26 nM | 3.1 nM
CC(C)C(C)(c1ccc(-c2cnc(N)nc2)cc1)c1noc(C2(C(=O)O)CCCCC2)n1 (centres unmarked) [Example 145, 1-(3-{2-[4-(2-aminopyrimidin-5-yl)phenyl]-3-methylbutan-2-yl}-1,2,4-oxadiazol-5-yl)cyclohexanecarboxylic acid] | 2500 nM | 17 nM
CC(C)C(C)(c1ccc(-c2cnc(N)nc2)cc1)c1noc(-c2cn[nH]c2)n1 (centres unmarked) [Example 146, 5-(4-{3-methyl-2-[5-(1H-pyrazol-4-yl)-1,2,4-oxadiazol-3-yl]butan-2-yl}phenyl)pyrimidin-2-amine] | 46 nM | 1.3 nM
CC(C)C(C)(c1ccc(-c2cnc(N)nc2)cc1)c1noc(-c2cccc(S(C)(=O)=O)c2)n1 (centres unmarked) [Example 148, 5-[4-(3-methyl-2-{5-[3-(methylsulfonyl)phenyl]-1,2,4-oxadiazol-3-yl}butan-2-yl)phenyl]pyrimidin-2-amine] | 610 nM | 14 nM
CC(C)C(C)(c1ccc(-c2cnc(N)nc2)cc1)c1noc(C2CCN(C)CC2)n1 (centres unmarked) [Example 150, 5-(4-{3-methyl-2-[5-(1-methylpiperidin-4-yl)-1,2,4-oxadiazol-3-yl]butan-2-yl}phenyl)pyrimidin-2-amine] | 1800 nM | 330 nM
Cc1nc(C)c(-c2nc(C(C)(c3ccc(-c4cnc(N)nc4)cc3)C(C)C)no2)s1 (centres unmarked) [Example 153, 5-(4-{2-[5-(2,4-dimethyl-1,3-thiazol-5-yl)-1,2,4-oxadiazol-3-yl]-3-methylbutan-2-yl}phenyl)pyrimidin-2-amine] | 180 nM | 4.6 nM
COc1ncc(-c2nc(C(C)(c3ccc(-c4cnc(N)nc4)cc3)C(C)C)no2)cn1 (centres unmarked) [Example 155, 5-(4-{2-[5-(2-methoxypyrimidin-5-yl)-1,2,4-oxadiazol-3-yl]-3-methylbutan-2-yl}phenyl)pyrimidin-2-amine] | 81 nM | 1.9 nM
COCCn1cc(-c2nc(C(C)(c3ccc(-c4cnc(N)nc4)cc3)C(C)C)no2)cn1 (centres unmarked) [Example 158, 5-[4-(2-{5-[1-(2-methoxyethyl)-1H-pyrazol-4-yl]-1,2,4-oxadiazol-3-yl}-3-methylbutan-2-yl)phenyl]pyrimidin-2-amine] | 55 nM | 3.4 nM

The next lines start with the values.

IC50 [1] | IC50 [2] | Compound
360 nM | 4.1 nM | CCC(C)(c1ccc(-c2cnc(N)nc2)cc1)c1noc(-c2ccc(C)nc2)n1 (centres unmarked) [Example 143, 5-(4-{2-[5-(6-methylpyridin-3-yl)-1,2,4-oxadiazol-3-yl]butan-2-yl}phenyl)pyrimidin-2-amine]
86 nM | 2.7 nM | CC(C)C(C)(c1ccc(-c2cnc(N)nc2)cc1)c1noc(-c2ccnnc2)n1 (centres unmarked) [Example 147, 5-(4-{3-methyl-2-[5-(pyridazin-4-yl)-1,2,4-oxadiazol-3-yl]butan-2-yl}phenyl)pyrimidin-2-amine]
100 nM | 2.3 nM | CC(C)C(C)(c1ccc(-c2cnc(N)nc2)cc1)c1noc(-c2ccc(N)nc2)n1 (centres unmarked) [Example 151, 5-(4-{2-[5-(6-aminopyridin-3-yl)-1,2,4-oxadiazol-3-yl]-3-methylbutan-2-yl}phenyl)pyrimidin-2-amine]
270 nM | 3.3 nM | Cc1ncc(-c2nc(C(C)(c3ccc(-c4cnc(N)nc4)cc3)C(C)C)no2)cn1 (centres unmarked) [Example 152, 5-(4-{3-methyl-2-[5-(2-methylpyrimidin-5-yl)-1,2,4-oxadiazol-3-yl]butan-2-yl}phenyl)pyrimidin-2-amine]
760 nM | 3.3 nM | Cc1ccc(-c2nc(C(C)(c3ccc(-c4cnc(N)nc4)cc3)C(C)C)no2)c(O)n1 (centres unmarked) [Example 157, 3-(3-{2-[4-(2-aminopyrimidin-5-yl)phenyl]-3-methylbutan-2-yl}-1,2,4-oxadiazol-5-yl)-6-methylpyridin-2-ol]
